Reference: patent US7902354B2, “Lapachone compounds and methods of use thereof” (ArQule, Inc., priority 2006, dated 2011)
pIC50: −log10 of the molar value. Where two headings read alike, the source gives them in different places.

What was measured:
Assay type in all cases: cell-based
[1] = tested on: DU-145 human prostate carcinoma cells; assay: MTS cell viability assay, DU-145 human prostate carcinoma cells; conditions: read-out: IC50 Values, Cancerous Cells, Prostate DU-145
[2] = tested on: PACA-2 human pancreatic carcinoma cells; assay: MTS cell viability assay, PACA-2 human pancreatic carcinoma cells; conditions: read-out: IC50 Values, Cancerous Cells, Pancreas PACA-2
[3] = tested on: NCM-460 normal colon epithelial cells; assay: MTS cell viability assay, NCM-460 normal colon epithelial cells; conditions: for pIC50: Homo sapiens, read-out: IC50 Values, Normal Cells, Colon NCM-460
[4] = tested on: A549 human lung carcinoma cells; assay: MTS cell viability assay, A549 human lung carcinoma cells; conditions: read-out: IC50 Values, Cancerous Cells, Lung A549
[5] = tested on: K-562 human leukemia cells; assay: MTS cell viability assay, K-562 human leukemia cells; conditions: read-out: IC50 Values, Cancerous Cells, Leukemia K-562
[6] = tested on: DLD-1 human colon carcinoma cells; assay: MTS cell viability assay, DLD-1 human colon carcinoma cells; conditions: read-out: IC50 Values, Cancerous Cells, Colon DLD-1
[7] = DU-145, 4 h compound incubation, MTS
[8] = PACA-2, 4 h compound incubation, MTS
[9] = NCM460, NCM-460, 4 h compound incubation, MTS
[10] = A549, 4 h compound incubation, MTS
[11] = K562, K-562, 4 h compound incubation, MTS
[12] = DLD-1, 4 h compound incubation, MTS

pIC50 [1, 7] | pIC50 [2, 8] | pIC50 [4, 10] | pIC50 [5, 11] | pIC50 [6, 12] | Compound | pIC50 [3, 9] | Fold Selectivity (NCM-460/DLD1) ([3]; ratio of IC50 NCM-460 / DLD1) | pIC50 ([1]; DU-145, 4 h) | pIC50 ([2]; PaCa-2, 4 h) | Fold Selectivity (NCM-460/DLD1) [3] | pIC50 ([3]; NCM460, 4 h) | pIC50 ([4]; A549, 4 h) | pIC50 ([5]; K562, 4 h) | pIC50 ([6]; DLD-1, 4 h)
5.43 | 5.55 | 5.07 | 5.60 | 5.62 | C=COC(=O)N1CCC2(CC1)CSC1=C(O2)c2ccccc2C(=O)C1=O [Compound 94, vinyl 5,6-dioxo-5,6-dihydro-1′H-spiro[naphtho[1,2-b][1,4]oxathiine-2,4′-piperidine]-1′-carboxylate] | 5.02 | 3.9 |  |  |  |  |  |  | 
5.29 | 5.33 | 4.29 | 4.91 | 4.96 | CCCCC(CC)COC(=O)N1CCC2(CC1)CSC1=C(O2)c2ccccc2C(=O)C1=O (stereo not drawn) [Compound 95, 2-ethylhexyl 5,6-dioxo-5,6-dihydro-1′H-spiro[naphtho[1,2-b][1,4]oxathiine-2,4′-piperidine]-1′-carboxylate] | 4.42 | 3.5 |  |  |  |  |  |  | 
5.40 | 5.79 | 5.14 | 5.84 | 5.51 | O=C1C(=O)c2ccccc2C2=C1SCC1(CCN(C(=O)OCc3ccccc3)CC1)O2 [Compound 98, benzyl 5,6-dioxo-5,6-dihydro-1′H-spiro[naphtho[1,2-b][1,4]oxathiine-2,4′-piperidine]-1′-carboxylate] | 5.32 | 1.5 |  |  |  |  |  |  | 
5.86 | 5.88 | 5.10 | 5.86 | 5.95 | O=C1C(=O)c2ccc(F)cc2C2=C1SCC1(CCN(C(=O)Oc3cccc(C(F)(F)F)c3)CC1)O2 [Compound 100, 3-(trifluoromethyl)phenyl 9-fluoro-5,6-dioxo-5,6-dihydro-1′H-spiro[naphtho[1,2-b][1,4]oxathiine-2,4′-piperidine]-1′-carboxylate] | 5.25 | 5.0 |  |  |  |  |  |  | 
 |  |  |  |  | Cc1ccc(OC(=O)N2CCC3(CC2)CSC2=C(O3)c3ccccc3C(=O)C2=O)cn1 [Compound 111, 6-methyllpyridin-3-yl 5,6-dioxo-5,6-dihydro-1′H-spiro[naphtho[1,2-b][1,4]oxathiine-2,4′-piperidine]-1′-carboxylate] |  |  | 5.39 | 5.77 | 3.1 | 5.32 | 5.33 | 5.70 | 5.82
5.40 | 5.74 | 4.95 | 5.53 | 5.81 | O=C1C(=O)c2ccccc2C2=C1SCC1(CCN(C(=O)Oc3ccccn3)CC1)O2 [Compound 112, pyridin-2-yl 5,6-dioxo-5,6-dihydro-1′H-spiro[naphtho[1,2-b][1,4]oxathiine-2,4′-piperidine]-1′-carboxylate] | 5.20 | 4.1 |  |  |  |  |  |  | 
5.30 | 5.64 | 5.00 | 5.41 | 5.62 | O=C1C(=O)c2ccccc2C2=C1SCC1(CCN(Cc3ccccc3F)CC1)O2 [Compound 118, 1′-(2-fluorobenzyl)spiro[naphtho[1,2-b][1,4]oxathiine-2,4′-piperidine]-5,6-dione] | 5.08 | 3.4 |  |  |  |  |  |  | 
5.03 | 5.36 | 5.04 | 5.26 | 5.37 | Cc1ccc(CN2CCC3(CC2)CSC2=C(O3)c3ccccc3C(=O)C2=O)cc1 [Compound 120, 1′-(4-methylbenzyl)spiro[naphtho[1,2-b][1,4]oxathiine-2,4′-piperidine]-5,6-dione] | 4.98 | 2.5 |  |  |  |  |  |  | 
5.26 | 5.43 | 5.03 | 5.39 | 5.40 | COc1cccc(CN2CCC3(CC2)CSC2=C(O3)c3ccccc3C(=O)C2=O)c1 [Compound 121, 1′-(3-methoxybenzyl)spiro[naphtho[1,2-b][1,4]oxathiine-2,4′-piperidine]5,6-dione] | 4.96 | 2.8 |  |  |  |  |  |  | 
5.69 | 5.88 | 5.22 | 5.84 | 5.78 | O=C1C(=O)c2ccccc2C2=C1SCC1(CCN(CC3CC3)CC1)O2 [Compound 122, 1′-(cyclopropylmethyl)spiro[naphtho[1,2-b][1,4]oxathiine-2,4′-piperidine]-5,6-dione] | 5.47 | 2.0 |  |  |  |  |  |  | 
5.36 | 5.38 | 4.43 | 5.39 | 5.36 | N#Cc1ccc(CN2CCC3(CC2)CSC2=C(O3)c3ccccc3C(=O)C2=O)cc1 [Compound 123, 4-[(5,6-dioxo-5,6-dihydro-1′H-spiro[naphtho[1,2-b][1,4]oxathiine-2,4′-piperidine]-1′-yl)methyl]benzonitrile] | 5.00 | 2.3 |  |  |  |  |  |  | 
5.39 | 5.84 | 5.30 | 5.79 | 5.51 | CC(C)CN1CCC2(CC1)CSC1=C(O2)c2ccccc2C(=O)C1=O [Compound 126, 1′-isobutylspiro[naphtho[1,2-b][1,4]oxathiine-2,4′-piperidine]-5,6-dione] | 5.28 | 1.7 |  |  |  |  |  |  | 
5.13 | 5.04 | 4.37 | 4.68 | 4.77 | CCCCCCCCCCN1CCC2(CC1)CSC1=C(O2)c2ccccc2C(=O)C1=O [Compound 128, 1′-decylspiro[naphtho[1,2-b][1,4]oxathiine-2,4′-piperidine]-5,6-dione] | 4.39 | 2.4 |  |  |  |  |  |  | 
5.34 | 5.56 | 5.13 | 5.42 | 5.80 | O=C1C(=O)c2ccccc2C2=C1SCC1(CCN(Cc3ccccc3)CC1)O2 [Compound 130, 1′-benzylspiro[naphtho[1,2-b][1,4]oxathiine-2,4′-piperidine]-5,6-dione] | 4.99 | 6.5 |  |  |  |  |  |  | 
5.57 | 5.84 | 5.16 | 5.86 | 5.84 | C=CCN1CCC2(CC1)CSC1=C(O2)c2ccccc2C(=O)C1=O [Compound 131, 1′-allylspiro[naphtho[1,2-b][1,4]oxathiine-2,4′-piperidine]-5,6-dione] | 5.53 | 2.0 |  |  |  |  |  |  | 
5.39 | 5.71 | 5.18 | 5.54 | 5.82 | CC(C)CCN1CCC2(CC1)CSC1=C(O2)c2ccccc2C(=O)C1=O [Compound 132, 1′-(3-methylbutyl)spiro[naphtho[1,2-b][1,4]oxathiine-2,4′-piperidine]-5,6-dione] | 5.01 | 6.4 |  |  |  |  |  |  | 
4.89 | 4.90 | 4.14 | 4.82 | 4.88 | Cc1cccc(CN2CCC3(CC2)CSC2=C(O3)c3ccccc3C(=O)C2=O)c1 [Compound 133, 1′-(3-methylbenzyl)spiro[naphtho[1,2-b][1,4]oxathiine-2,4′-piperidine]-5,6-dione] | 4.53 | 2.3 |  |  |  |  |  |  | 
5.16 | 5.35 | 4.63 | 5.14 | 5.40 | CC(C(=O)Nc1ccccc1)N1CCC2(CC1)CSC1=C(O2)c2ccccc2C(=O)C1=O (stereo not drawn) [Compound 134, 2-(5,6-dioxo-5,6-dihydro-1′H-spiro[naphtho[1,2-b][1,4]oxathiine-2,4′-piperidin]-1′-yl)-N-phenylpropanamide] | 4.81 | 4.0 |  |  |  |  |  |  | 
5.29 | 5.13 | 4.72 | 5.40 | 5.31 | O=C1C(=O)c2ccccc2C2=C1SCC1(CCN(C3C=CCCC3)CC1)O2 (stereo not drawn) [Compound 135, 1′-cyclohex-2-en-1-ylspiro[naphtho[1,2-b][1,4]oxathiine-2,4′-piperidine]-5,6-dione] | 5.08 | 1.7 |  |  |  |  |  |  | 
5.36 | 5.38 | 5.02 | 5.36 | 5.53 | O=C1C(=O)c2ccccc2C2=C1SCC1(CCN(CC3CCCCC3)CC1)O2 [Compound 136, 1′-(cyclohexylmethyl)spiro[naphtho[1,2-b][1,4]oxathiine-2,4′-piperidine]-5,6-dione] | 5.06 | 2.9 |  |  |  |  |  |  | 
5.36 | 5.39 | 5.08 | 5.37 | 5.39 | CC(c1ccccc1)N1CCC2(CC1)CSC1=C(O2)c2ccccc2C(=O)C1=O (stereo not drawn) [Compound 137, 1′-(1-phenylethyl)spiro[naphtho[12-b][1,4]oxathiine-2,4′-piperidine]-5,6-dione] | 5.00 | 2.5 |  |  |  |  |  |  | 
